Test results from patent US8518965B2, “Compositions and methods for treating cancer” (Trustees of Dartmouth College, priority 2009, dated 2013).
Read-outs that look alike come from different tables or passages of the source.

Columns and labels:
[1] = State of stock and injection solutions in water + co-solvents; type: physicochemical
Procedure: (§1) The solubility of D11B in various combinations of solvents was also analyzed. […] For the analysis of co-solvents, stock solutions were prepared by dissolving D11B in a corresponding solvent. Stock solutions of D11B in dimethylsulfoxide (DMSO) were prepared at 25° C., and stock solutions of D11B in PEG-400, CREMOPHOR® EL and Polysorbate 80 were prepared at 100° C. Injection solutions, in water (0.3 mg/ml), were prepared by dropwise addition of the stock solution to a required volume of vigorously stirred hot water (80° C.).
Additional solubility determinations were carried out with D11B×2AH in water+co-solvents. For this analysis, stock solutions were prepared by dissolving D11B×2AH in a corresponding solvent. Stock solutions of D11B×2AH in DMSO were prepared at 25° C. and stock solutions of D11B×2AH in PEG-400 were prepared at 100° C.
Injection solutions in water (0.3 mg/ml) were prepared by dropwise addition of each stock solution to a required volume of vigorously stirred water.

[2] = Solubility in solvents and buffers; type: physicochemical; details: for solubility: read-out: Solubility (mg/ml), 25° C.
Procedure: Characterization of D11B. The solubility of D11B in different solvents was analyzed (Table 1).
as §1
The solubility of D11B×2AH in DMSO, PEG-400, EtOH, and buffer was determined (Table 7).

[3] = in vivo; details: C3H/HeN, mouse, ip
Procedure: The MTD40 (maximum tolerated dose at day 40) values were determined on normal C3H/HeN mice using standard procedures. […] The result of this exercise was two dosages, one apparently nonlethal and the other lethal, if severe and irreversible toxicity occurred and euthanasia was required. Six mice were dosed at each dosage. If no severe and irreversible toxicity occurred at the lower dosage and at least one with severe and irreversible toxicity at the higher dose, then the lower dose was considered to be the MTD.
Compounds were administered to C3H/HeN mice by intraperitoneal injection (5% alcohol, 5% CREMOPHOR® EL, and 90% saline, 0.5 ml/20 gram, single injection). Drug toxicity was evaluated on mice checked daily for 40 days. The toxicity parameters reported were the MTD40. […] At the end of experiment, all mice were euthanized.
The toxicity parameters reported were the MTD40. At the end of experiment, all mice will be euthanized.

c1ccc2c(Nc3ccc(Oc4ccc(Nc5c6ccccc6nc6ccccc56)cc4)cc3)c3ccccc3nc2c1 [Compound D11B]
State of the stock solution ([1]; D11B in DMSO, 20 mg/ml): clear | State of the stock solution ([1]; D11B in DMSO, 30 mg/ml): clear | State of the stock solution ([1]; D11B in DMSO, 40.5 mg/ml): clear | State of the stock solution ([1]; D11B in DMSO, 50 mg/ml): clear | State of the stock solution ([1]; D11B in DMSO, 70 mg/ml): clear | State of the stock solution ([1]; D11B in DMSO, 100 mg/ml): clear | State of the injection solution ([1]; D11B in H2O-CREMOPHOR EL, 0.3 mg/ml, CREMOPHOR EL 1 wt. %): clear | State of the injection solution ([1]; D11B in H2O-PEG-400 0.3 mg/ml, stock 12 mg/ml, PEG-400 2.82 wt. %): clear^b | State of the injection solution ([1]; D11B in H2O-PEG-400 0.3 mg/ml, stock 20 mg/ml, PEG-400 1.7 wt. %): clear^a | State of the injection solution ([1]; D11B in H2O-Polysorbate 80, 0.3 mg/ml, Polysorbate 80 1 wt. %): clear | State of the injection solution ([1]; D11B in H2O—DMSO 0.3 mg/ml, stock 20 mg/ml, DMSO 1.65 wt. %): clear | State of the injection solution ([1]; D11B in H2O—DMSO 0.3 mg/ml, stock 30 mg/ml, DMSO 1.1 wt. %): clear | State of the injection solution ([1]; D11B in H2O—DMSO 0.3 mg/ml, stock 40.5 mg/ml, DMSO 0.83 wt. %): clear | State of the injection solution ([1]; D11B in H2O—DMSO 0.3 mg/ml, stock 50 mg/ml, DMSO 0.66 wt. %): clear | State of the injection solution ([1]; D11B in H2O—DMSO 0.3 mg/ml, stock 70 mg/ml, DMSO 0.47 wt. %): clear | State of the injection solution ([1]; D11B in H2O—DMSO 0.3 mg/ml, stock 100 mg/ml, DMSO 0.33 wt. %): clear | State of the stock solution ([1]; D11B in PEG-400, 12 mg/ml): clear | State of the stock solution ([1]; D11B in PEG-400, 20 mg/ml): gel | State of the stock solution ([1]; D11B in PEG-400, 40 mg/ml): gel | State of the stock solution ([1]; D11B in Polysorbate 80, 32.25 mg/ml): clear | Solubility in 5% dextrose in water ([2]; 5% dextrose in water): negligible | solubility ([2]; AcOH, 25 °C, organic solvent or mixture, AcOH): ~0.01 mg/mL | solubility ([2]; AcOH-H2O (1-1), 25 °C, aqueous with cosolvent or surfactant or cyclodextrin, AcOH—H2O (1-1)): > 1.1 mg/mL | solubility ([2]; AcOH-H2O (9-1), 25 °C, organic solvent or mixture, AcOH—H2O (9-1)): > 13 mg/mL | solubility ([2]; CHCl3, 25 °C, organic solvent or mixture, CHCl3): 0.12 mg/mL | solubility ([2]; DMF, 25 °C, organic solvent or mixture, DMF): ~20 mg/mL | solubility ([2]; DMSO, 25 °C, organic solvent or mixture, DMSO): ~100 mg/mL | Solubility (mg/ml), 25° C. ([2]; H2O): negligible | solubility ([2]; MeOH, 25 °C, organic solvent or mixture, MeOH): ~1 mg/mL | solubility ([2]; Na2HPO4-citric acid buffer, 25 °C, pH 4, aqueous buffer, Na2HPO4-citric acid buffer (pH = 4), first entry): < 0.1 mg/mL | solubility ([2]; Na2HPO4-citric acid buffer, 25 °C, pH 4, aqueous buffer, Na2HPO4-citric acid buffer (pH = 4), second entry): < 0.1 mg/mL | solubility ([2]; PEG-400, 25 °C, organic solvent or mixture, PEG-400, heating to 100° C. was required): ~12 mg/mL | Solubility in saline ([2]; saline (0.9% NaCl in water)): negligible | MTD at 40 days [3]: 450 mg/kg
